Measurements taken from US20230374038A1, “MODULATORS OF CYSTIC FIBROSIS TRANSMEMBRANE CONDUCTANCE REGULATOR” (VERTEX PHARMACEUTICALS INCORPORATED, priority 2020, published 2023).

Target: CFTR (Homo sapiens, UniProt P13569)
Test: Membrane Potential Dye, Enteroid Assay B
Format: cell-based
Conditions: for EC50: read-out: Ent. B EC50
Method: Base medium (ADF+++) consisted of Advanced DMEM/Ham's F12, 2 mM Glutamax, 10 mM HEPES, 1 µg/mL penicillin/streptomycin.
Intestinal enteroid maintenance medium (IEMM) consisted of ADF+++, 1× B27 supplement, 1× N2 supplement, 1.25 mM N-acetyl cysteine, 10 mM Nicotinamide, 50 ng/mL hEGF, 10 nM Gastrin, 1 pg/mL hR-spondin-1, 100 ng/mL hNoggin, TGF-b type 1 inhibitor A-83-01, 100 μg/mL Primocin, […] P38 MAPK inhibitor SB202190.
Bath 1 Buffer consisted of 1 mM MgCl2, 160 mM NaCl, 4.5 mM KCl, 10 mM HEPES, 10 mM Glucose, 2 mM CaCl2).
Chloride Free Buffer consisted of 1 mM Magnesium Gluconate, 2 mM Calcium Gluconate, 4.5 mM Potassium Gluconate, 160 mM Sodium Gluconate, 10 mM HEPES, 10 mM Glucose.
Bath1 Dye Solution consisted of Bath 1 Buffer, 0.04% Pluronic F127, […] Methyl Oxonol, 30 μM CaCCinh-A01, 30 μM Chicago Sky Blue.
Chloride Free Dye Solution consisted of Chloride Free Buffer, 0.04% Pluronic F127, 20 μM Methyl Oxonol, 30 μM CaCCinh-A01, 30 μM Chicago Sky Blue.
Chloride Free Dye Stimulation Solution consisted of Chloride Free Dye Solution, 10 μM forskolin, 100 μM IBMX, and 300 nM Compound III.
Human intestinal epithelial enteroid cells were obtained from the Hubrecht Institute for Developmental Biology and Stem Cell Research, Utrecht, The Netherlands and expanded in T-Flasks as previously described (Dekkers J F, Wiegerinck C L, de Jonge H R, Bronsveld I, Janssens H M, de Winter-de Groot K M, Brandsma A M, de Jong N W M, Bijvelds M J C, Scholte B J, Nieuwenhuis E E S, van den Brink S, Clevers H, van der Ent C K, Middendorp S and M Beekman J M. A functional CFTR assay using primary cystic fibrosis intestinal organoids. Nat Med. 2013 July; 19(7):939-45.).
Cells were recovered in cell recovery solution, collected by centrifugation at 650 rpm for 5 min at 4° C., resuspended in TryPLE and incubated for 5 min at 37° C. Cells were then collected by centrifugation at 650 rpm for 5 min at 4° C. and resuspended in IEMM containing 10 μM ROCK inhibitor (RI). The cell suspension was passed through a 40 μm cell strainer and resuspended at 1×10^6 cells/mL in IEMM containing 10 μM RI. Cells were seeded at 5000 cells/well into multi-well plates and incubated for overnight at 37° C., 95% humidity and 5% CO2 prior to assay.
Enteroid cells were incubated with test compound in IEMM for 18-24 hours at 37° C., 95% humidity and 5% CO2. […] Briefly, cells were washed 5 times in Bath 1 Buffer. Bath 1 Dye Solution was added and the cells were incubated for 25 min at room temperature. Following dye incubation, cells were washed 3 times in Chloride Free Dye Solution. Chloride transport was initiated by addition of Chloride Free Dye Stimulation Solution and the fluorescence signal was read for 15 min. […] Chloride transport was then expressed as a percentage of the chloride transport following treatment with 1 μM (14S)-8-[3-(2-{Dispiro[2.0.2.1]heptan-7-yl}ethoxy)-1H-pyrazol-1-yl]-12,12-dimethyl-2λ^6-thia-3,9,11,18,23-pentaazatetracyclo[17.3.1.111,14.05,10]tetracosa-1(22),5,7,9,19(23),20-hexaene-2,2,4-trione, 3 μM (R)-1-(2,2-difluorobenzo[d][1,3]dioxol-5-yl)-N-(1-(2,3-dihydroxypropyl)-6-fluoro-2-(1-hydroxy-2-methylpropan-2-yl)-1H-indol-5-yl)cyclopropanecarboxamide and 300 nM acute N-[2,4-bis(1,1-dimethylethyl)-5-hydroxyphenyl]-1,4-dihydro-4-oxoquinoline-3-carboxamide triple combination control (% Activity).

Chain of CFTR (P13569 with tags, fused parts or gaps DEL508-508): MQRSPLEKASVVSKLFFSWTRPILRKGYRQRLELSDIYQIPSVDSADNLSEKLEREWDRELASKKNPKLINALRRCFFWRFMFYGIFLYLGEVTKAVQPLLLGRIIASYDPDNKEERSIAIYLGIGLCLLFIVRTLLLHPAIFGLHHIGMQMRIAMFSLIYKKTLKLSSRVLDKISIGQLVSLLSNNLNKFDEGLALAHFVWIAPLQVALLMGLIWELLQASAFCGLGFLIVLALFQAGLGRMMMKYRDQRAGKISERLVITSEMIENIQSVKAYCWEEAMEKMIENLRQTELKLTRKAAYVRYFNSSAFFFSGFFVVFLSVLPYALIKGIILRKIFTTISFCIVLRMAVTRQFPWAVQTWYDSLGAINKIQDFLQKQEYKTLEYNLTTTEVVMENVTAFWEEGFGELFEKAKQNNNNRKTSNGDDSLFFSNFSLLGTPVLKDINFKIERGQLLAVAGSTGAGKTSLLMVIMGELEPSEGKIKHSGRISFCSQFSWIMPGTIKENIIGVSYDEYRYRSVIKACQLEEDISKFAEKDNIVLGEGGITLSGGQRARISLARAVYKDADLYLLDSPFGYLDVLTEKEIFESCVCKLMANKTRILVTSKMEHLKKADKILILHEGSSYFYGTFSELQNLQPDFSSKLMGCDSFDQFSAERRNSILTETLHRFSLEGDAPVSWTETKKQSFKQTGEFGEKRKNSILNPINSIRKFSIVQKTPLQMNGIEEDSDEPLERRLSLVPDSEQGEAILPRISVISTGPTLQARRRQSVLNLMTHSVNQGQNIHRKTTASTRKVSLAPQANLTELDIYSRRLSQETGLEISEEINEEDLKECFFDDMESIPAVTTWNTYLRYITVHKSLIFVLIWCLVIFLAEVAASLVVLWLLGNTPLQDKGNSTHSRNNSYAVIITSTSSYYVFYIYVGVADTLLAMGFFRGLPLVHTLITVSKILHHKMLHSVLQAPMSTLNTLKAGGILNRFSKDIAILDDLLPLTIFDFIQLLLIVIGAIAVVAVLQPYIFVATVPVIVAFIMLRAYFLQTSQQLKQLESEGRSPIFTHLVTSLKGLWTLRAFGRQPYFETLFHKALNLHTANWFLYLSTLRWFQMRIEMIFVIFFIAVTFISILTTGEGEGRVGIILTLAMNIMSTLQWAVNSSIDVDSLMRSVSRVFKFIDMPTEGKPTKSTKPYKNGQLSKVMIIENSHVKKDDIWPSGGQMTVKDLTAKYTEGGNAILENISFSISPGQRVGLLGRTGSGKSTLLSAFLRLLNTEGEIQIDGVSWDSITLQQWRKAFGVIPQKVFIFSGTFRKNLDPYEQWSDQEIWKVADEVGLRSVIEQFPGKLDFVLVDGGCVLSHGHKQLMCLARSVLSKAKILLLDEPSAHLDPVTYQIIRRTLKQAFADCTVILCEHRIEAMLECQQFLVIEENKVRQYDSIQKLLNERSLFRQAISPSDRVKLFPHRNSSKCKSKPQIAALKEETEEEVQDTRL

Row | SMILES | Ent. B Max Activity | EC50 [µM]
1 | Cc1ccc(C(F)(F)F)c(C)c1-c1nc2nc(c1C(F)(F)F)OC[C@@H](CC(C)C)NC(=O)c1cccc(c1)S(=O)(=O)N2 [Compound 163, (11R)-6-[2,6-Dimethyl-3-(trifluoromethyl)phenyl]-11-isobutyl-2,2-dioxo-7-(trifluoromethyl)-9-oxa-2λ^6-thia-3,5,12,19-tetrazatricyclo[12.3.1.14,8]nonadeca-1(18),4(19),5,7,14,16-hexaen-13-one] | +++ (+++ is >60%) | < 1
2 | Cc1cccc(C)c1-c1nc2nc(c1C)OC[C@@H](CC(C)(C)C(F)(F)F)N(C1CC3(CCN(C(=O)OC(C)C)CC3)C1)C(=O)c1cccc(c1)S(=O)(=O)N2 [Compound 184] | +++ (+++ is >60%) | < 1
3 | Cc1cccc(C)c1-c1nc2nc(c1C)OC[C@@H](CC(C)C)N(C1CC3(CC(CO)C3)C1)C(=O)c1cccc(c1)S(=O)(=O)N2 (stereo in doubt) [Compound 67] | +++ (+++ is >60%) | < 1
4 | Cc1cccc(C)c1-c1nc2nc(c1C1CCN(C(=O)OC(C)(C)C)CC1)OC[C@@H](C)NC(=O)c1cccc(c1)S(=O)(=O)N2 [Compound 141] | + (+ is <30%) | –
5 | Cc1cccc(C)c1-c1nc2nc(c1C)OC[C@@H](CC1(C(F)(F)F)CC1)N(C1CC3(CC(NC(=O)OC(C)(C)C)C3)C1)C(=O)c1cccc(c1)S(=O)(=O)N2 (stereo in doubt) [Compound 98] | +++ (+++ is >60%) | < 1
6 | Cc1cccc(C)c1-c1nc2nc(c1C)OC[C@@H](CCC(C)(C)O)N(Cc1ccc(C(C)(C)O)cc1)C(=O)c1cccc(c1)S(=O)(=O)N2 [Compound 112] | ++ (++ is 30-60%) | 1 to 3
7 | Cc1cccc(C)c1-c1nc2nc(c1CN(C)C)OC[C@@H](CC(C)C)N(C1CC3(CC3)C1)C(=O)c1cccc(c1)S(=O)(=O)N2 [Compound 171, (11R)-7-[(Dimethylamino)methyl]-6-(2,6-dimethylphenyl)-11-isobutyl-2,2-dioxo-12-spiro[2.3]hexan-5-yl-9-oxa-2λ^6-thia-3,5,12,19-tetrazatricyclo[12.3.1.14,8]nonadeca-1(18),4(19),5,7,14,16-hexaen-13-one] | ++ (++ is 30-60%) | < 1
8 | Cc1cccc(C)c1-c1nc2nc(c1C)O[C@@H]1CN(C3CC4(CCCCC4)C3)C[C@H]1NC(=O)c1cccc(c1)S(=O)(=O)N2 [Compound 104, (3R,7R)-19-(2,6-dimethylphenyl)-20-methyl-5-{spiro[3.5]nonan-2-yl}-2-oxa-15λ^6-thia-5,8,16,18,21-pentaazatetracyclo[15.3.1.110,14.03,7]docosa-1(21),10,12,14(22),17,19-hexaene-9,15,15-trione] | +++ (+++ is >60%) | < 1
9 | Cc1cccc(C)c1-c1nc2nc(c1C)OC[C@@H](CC(C)(C)C)N(C1CC3(CCN(C(=O)OC(C)C)CC3)C1)C(=O)c1cccc(c1)S(=O)(=O)N2 [Compound 77] | +++ (+++ is >60%) | < 1
10 | Cc1cccc(C)c1-c1nc2nc(c1C)OC[C@@H](CC1(C(F)(F)F)CC1)N(C1CC3(CC(N(C)C)C3)C1)C(=O)c1cccc(c1)S(=O)(=O)N2 (stereo in doubt) [Compound 91] | +++ (+++ is >60%) | < 1
11 | Cc1cccc(C)c1-c1nc2nc(c1C)OC[C@@H](CC1(C(F)(F)F)CC1)N(C1CC3(CC(N)C3)C1)C(=O)c1cccc(c1)S(=O)(=O)N2 (some centres unmarked) [Compound 93] | +++ (+++ is >60%) | < 1
12 | Cc1cccc(C)c1-c1nc2nc(c1C)OC[C@@H](CC(C)C)N([C@H]1C[C@@]3(C[C@H](N(C)C)C3)C1)C(=O)c1cccc(c1)S(=O)(=O)N2 (single isomer, unassigned) [Compound 54] | +++ (+++ is >60%) | < 1
13 | COCCN1CCC2(CC1)CC(N1C(=O)c3cccc(c3)S(=O)(=O)Nc3nc(c(F)c(-c4c(C)cccc4C)n3)OC[C@H]1CC(C)C)C2 [Compound 185] | +++ (+++ is >60%) | < 1
14 | Cc1cccc(C)c1-c1nc2nc(c1C)OC[C@@H](CC(C)C)N([C@H]1C[C@@]3(C[C@H](NC(=O)OC(C)C)C3)C1)C(=O)c1cccc(c1)S(=O)(=O)N2 (single isomer, unassigned) [Compound 51] | +++ (+++ is >60%) | < 1

Other lines, results leading:

Row | Ent. B Max Activity | EC50 [µM] | SMILES
15 | +++ (+++ is >60%) | < 1 | Cc1cccc(C)c1-c1nc2nc(c1CCC(C)(C)C)O[C@H](C)CNC(=O)c1cccc(c1)S(=O)(=O)N2 [Compound 120, (10R)-7-(3,3-Dimethylbutyl)-6-(2,6-dimethylphenyl)-10-methyl-2,2-dioxo-9-oxa-2λ^6-thia-3,5,12,19-tetrazatricyclo[12.3.1.14,8]nonadeca-1(18),4(19),5,7,14,16-hexaen-13-one]
16 | + (+ is <30%) | – | Cc1cccc(C)c1-c1nc2nc(c1-c1ccncc1)OC[C@@H](C)NC(=O)c1cccc(c1)S(=O)(=O)N2 [Compound 145]
17 | +++ (+++ is >60%) | < 1 | Cc1cccc(C)c1-c1nc2nc(c1/C=C/C(C)(C)C)O[C@H](C)CNC(=O)c1cccc(c1)S(=O)(=O)N2 [Compound 121, (10R)-7-[(E)-3,3-Dimethylbut-1-enyl]-6-(2,6-dimethylphenyl)-10-methyl-2,2-dioxo-9-oxa-2λ^6-thia-3,5,12,19-tetrazatricyclo[12.3.1.14,8]nonadeca-1(18),4(19),5,7,14,16-hexaen-13-one]
18 | ++ (++ is 30-60%) | 3 to 30 | Cc1cccc(C)c1-c1nc2nc(c1C)OC[C@@H](CCC(C)(C)O)N(Cc1ncccn1)C(=O)c1cccc(c1)S(=O)(=O)N2 [Compound 113]
19 | +++ (+++ is >60%) | 1 to 3 | Cc1cccc(C)c1-c1nc2nc(c1-c1cnn(CC(C)C)c1)O[C@H](C)CNC(=O)c1cccc(c1)S(=O)(=O)N2 [Compound 127]
20 | ++ (++ is 30-60%) | 3 to 30 | Cc1cccc(C)c1-c1nc2nc(c1C1=CCOCC1)OC[C@@H](C)NC(=O)c1cccc(c1)S(=O)(=O)N2 [Compound 140]
21 | + (+ is <30%) | – | Cc1cccc(C)c1-c1nc2nc(c1-c1ccn(C)n1)O[C@H](C)CNC(=O)c1cccc(c1)S(=O)(=O)N2 [Compound 129]
22 | +++ (+++ is >60%) | < 1 | Cc1cccc(C)c1-c1nc2nc(c1-c1ccccc1)O[C@H](C)CNC(=O)c1cccc(c1)S(=O)(=O)N2 [Compound 119, (10R)-6-(2,6-dimethylphenyl)-10-methyl-2,2-dioxo-7-phenyl-9-oxa-2λ^6-thia-3,5,12,19-tetrazatricyclo[12.3.1.14,8]nonadeca-1(18),4(19),5,7,14,16-hexaen-13-one]
23 | ++ (++ is 30-60%) | 3 to 30 | Cc1cccc(C)c1-c1nc2nc(c1-c1cnn(C(C)C)c1)O[C@H](C)CNC(=O)c1cccc(c1)S(=O)(=O)N2 [Compound 147]
24 | + (+ is <30%) | – | Cc1cccc(C)c1-c1nc2nc(c1-c1cnn(C)c1)O[C@H](C)CNC(=O)c1cccc(c1)S(=O)(=O)N2 [Compound 128]
